Assay results as given in BindingDB's records for doi:10.1021/jm0011171 (Stockholm University, 2001).

Biological target: T1, Dimer of Gag-Pol polyprotein [489-587] (Human immunodeficiency virus 1, UniProt P12497)
T1 construct: 489-587
Test: Protease Inhibition Assay
Conditions: pH 5; 30 °C
Procedure: A fluorimetric assay was used to determine the effects of the inhibitors on HIV-1 protease. This assay used an internally quenched fluorescent peptide substrate. The measurements were performed in 96-well plates with a Fluoroscan plate reader. Excitation and emission wavelengths were 355 nm and 500 nm, respectively.

SMILES	Ki
O=C(N[C@H]1c2ccccc2C[C@H]1O)[C@H](CCc1ccccc1)[C@H](O)[C@H](O)[C@@H](CCc1ccccc1)C(=O)N[C@H]1c2ccccc2C[C@H]1O [N1,N6 -Bis[(2R)-hydroxy-(1S)-indanyl]-(2R,3R,4S,5R)-3,4-dihydroxy-2,5-bis(2-phenylethyl)hexanediamide]	28 nM
O=C(N[C@H]1c2ccccc2C[C@H]1O)[C@H](OCc1ccccc1)[C@H](O)[C@@H](O)[C@@H](OCc1ccccc1)C(=O)N[C@H]1c2ccccc2C[C@H]1O [symmetric/asymmetric inhibitor 2]	0.6 nM
O=C(N[C@H]1c2ccccc2C[C@H]1O)[C@H](CCc1ccccc1)[C@@H](O)[C@H](O)[C@@H](CCc1ccccc1)C(=O)N[C@H]1c2ccccc2C[C@H]1O [(2R,3R,4R,5R)-3,4-dihydroxy-N,N'-bis[(1S,2R)-2-hydroxy-2,3-dihydro-1H-inden-1-yl]-2,5-bis(2-phenylethyl)hexanediamide]	1.1 nM
